What all share (format): cell-based, human
Series [1] concerns CD207. The series can be described thus: siRNA dose response, CD207 mRNA knockdown, Dual-Glo Luciferase Assay. The conditions noted are these: Hepal-6 + reporter plasmid, 24 hr. On the procedure: (§1) Dose response curves for siRNAs were generated in vitro using a variety of cell lines according to Table 4.
(§2) Briefly, cells were seeded in 96-well plates and reverse transfected with siRNA, Lipofectamine® 2000 (0.5 uL/well; ThermoFisher), and, in some cases, a reporter plasmid (50 ng/well). The reporter plasmid (psiCHECK™-2, Promega) encoded both firefly luciferase and the gene of interest fused to renilla luciferase; silencing of the gene of interest results in proportional silencing of renilla luciferase but leaves firefly luciferase unaffected as an internal control.
(§3) After 24 hr incubation at 37° C., mRNA knockdown was measured using an endpoint assay. For targets without a reporter plasmid, a branched DNA (bDNA) assay was performed according to the manufacturer's instructions (QuantiGene® Singleplex Gene Expression Assay, ThermoFisher) to measure both the target gene and GAPDH (housekeeping gene) mRNA. Data are plotted as siRNA concentration (nM) vs. remaining mRNA (ratio of target gene to GAPDH, normalized to mock siRNA-transfected cells). For targets with a reporter plasmid, a Dual-Glo® Luciferase Assay was performed according to the manufacturer's instructions (Promega) to measure firefly and renilla luciferase expression. Data are plotted as siRNA concentration (nM) vs. remaining mRNA (ratio of renilla to firefly luminescence, normalized to mock siRNA-transfected cells).
(§4) For all dose response curves, a 4-parameter logistic model was applied to determine the IC50 of each siRNA sequence (Table 5 and FIG. 2). Data shown in Table 5 and FIG. 2 represent the mean of quadruplicates, +/−standard deviation.

The subject of series [2] is SELPLG. Nature of the series: siRNA dose response, SELPLG mRNA knockdown, bDNA Assay. The conditions noted are these: THP-1, 24 hr. On the procedure:
as §1, §2, §3, §4

Series [3] relates to TNFAIP8L2. The series can be described thus: siRNA dose response, TNFAIP8L2 mRNA knockdown, bDNA Assay. Particulars: THP-1, 24 hr. On the procedure:
as §1, §2, §3, §4

The test system of series [4] is SPI1. The series can be described thus: siRNA dose response, SPI1 mRNA knockdown, bDNA Assay. The conditions noted are these: THP-1, 24 hr. On the procedure:
as §1, §2, §3, §4

pIC50: −log10 of the molar value.

Consider “XD-09240: siRNA targeting CD207 (sense 5'-guGAGcAcucAGGauGAcudTsdT-3'; antisense 5'-AGUcAUCCUGAGUGCUcACdTsdT-3'; as printed in the source, key not given here)”, for which the negative-log IC50 (pIC50) in series [1] is 9.17.

“XD-09241: siRNA targeting CD207 (sense 5'-gaAAAcAcccAcAguccGudTsdT-3'; antisense 5'-ACGGACUGUGGGUGUUUUCdTsdT-3'; as printed in the source, key not given here)”: the pIC50 in series [1] is 9.69.

As to “XD-09242: siRNA targeting CD207 (sense 5'-caGuccGuGcuGcauuAAudTsdT-3'; antisense 5'-AUuAAUGcAGcACGGACUGdTsdT-3'; as printed in the source, key not given here)”, the pIC50 in series [1] was 11.05. With “XD-09243: siRNA targeting CD207 (sense 5'-guccGuGcuGcAuuAAucudTsdT-3'; antisense 5'-AGAUuAAUGcAGcACGGACdTsdT-3'; as printed in the source, key not given here)”, the pIC50 in series [1] is 9.70.

Turning to “XD-09267: siRNA targeting SELPLG (sense 5'-acuGAAGAGuGAcgGAcuudTsdT-3'; antisense 5'-AAGUCCGUcACUCUUcAGUdTsdT-3'; RNA with 2'-O-methyl and phosphorothioate modifications, case key not given here, as printed in the source, key not given here)”, in series [2], the pIC50 was 8.97.

The substance “XD-09268: siRNA targeting SELPLG (sense 5'-ccAAGGGcAGAccuuucuudTsdT-3'; antisense 5'-AAGAAAGGUCUGCCCUUGGdTsdT-3'; RNA with 2'-O-methyl and phosphorothioate modifications, case key not given here, as printed in the source, key not given here)” had a negative logarithm of the IC50 (pIC50) in series [2] of 9.33. “XD-09760: siRNA targeting TNFAIP8L2 (sense 5'-ggAccAGGccGuGaucucudTsdT-3'; antisense 5'-AGAGAUcACGGCCUGGUCCdTsdT-3'; RNA with 2'-O-methyl and phosphorothioate modifications, case key not given here, as printed in the source, key not given here)” had a negative logarithm of the IC50 (pIC50) in series [3] of 10.24. Still for that read-out and setting: in the case of “XD-09761: siRNA targeting TNFAIP8L2 (sense 5'-ggucAGGuGGAGAucucuudTsdT-3'; antisense 5'-AAGAGAUCUCcACCUGACCdTsdT-3'; RNA with 2'-O-methyl and phosphorothioate modifications, case key not given here, as printed in the source, key not given here)” it was 9.15. In the case of “XD-09762: siRNA targeting TNFAIP8L2 (sense 5'-uuuAAuGuAucGcuAccAAdTsdT-3'; antisense 5'-UUGGuAGCGAuAcAUuAAAdTsdT-3'; as printed in the source, key not given here)”, the negative logarithm of the IC50 (pIC50) in series [3] was 9.65. In turn, “XD-09764: siRNA targeting TNFAIP8L2 (sense 5'-cguuGcGcuGGAAgGAAuudTsdT-3'; antisense 5'-AAUUCCUUCcAGCGcAACGdTsdT-3'; as printed in the source, key not given here)” showed a pIC50 in series [3] of 8.53. In the case of “XD-09765: siRNA targeting TNFAIP8L2 (sense 5'-cuGcGcGAGGcGcaAuAcAdTsdT-3'; antisense 5'-UGuAUUGCGCCUCGCGcAGdTsdT-3'; RNA with 2'-O-methyl and phosphorothioate modifications, case key not given here, as printed in the source, key not given here)”, the pIC50 in series [3] was 10.64. “XD-09766: siRNA targeting TNFAIP8L2 (sense 5'-cccucGAuGuAcAuAGcuudTsdT-3'; antisense 5'-AAGCuAUGuAcAUCGAGGGdTsdT-3'; RNA with 2'-O-methyl and phosphorothioate modifications, case key not given here, as printed in the source, key not given here)” showed a pIC50 in series [3] of 9.90.

Take “XD-09768: siRNA targeting TNFAIP8L2 (sense 5'-aaAucAAucAuGuuAcAcudTsdT-3'; antisense 5'-AGUGuAAcAUGAUUGAUUUdTsdT-3'; RNA with 2'-O-methyl and phosphorothioate modifications, case key not given here, as printed in the source, key not given here)”: in series [3], the pIC50 is 9.45. Substance “XD-09780: siRNA targeting SPI1 (sense GGAUCUAUACCAACGCCAATT; antisense UUGGCGUUGGUAUAGAUCCTT; 2'-O-methyl and phosphorothioate modified, lower-case key not given here)” gave a pIC50 in series [4] of 8.57. Same read-out and setting: the figure for “XD-09781: siRNA targeting SPI1 (sense CGCCAAACGCACGAGUAUUTT; antisense AAUACUCGUGCGUUUGGCGTT; 2'-O-methyl and phosphorothioate modified, lower-case key not given here)” is 9.34; for “XD-09783: siRNA targeting SPI1 (sense GCGACAUGAAGGACAGCAUTT; antisense AUGCUGUCCUUCAUGUCGCTT; 2'-O-methyl and phosphorothioate modified, lower-case key not given here)” it is 8.96; for “XD-09785: siRNA targeting SPI1 (sense GUCUCAAGUCCGUAUGUAATT; antisense UUACAUACGGACUUGAGACTT; 2'-O-methyl and phosphorothioate modified, lower-case key not given here)” it is 9.32.

Regarding “XD-09786: siRNA targeting SPI1 (sense UCUCAAGUCCGUAUGUAAATT; antisense UUUACAUACGGACUUGAGATT; 2'-O-methyl and phosphorothioate modified, lower-case key not given here)”, in series [4], the pIC50 is 9.60. As to “XD-09787: siRNA targeting SPI1 (sense CCGUAUGUAAAUCAGAUCUTT; antisense AGAUCUGAUUUACAUACGGTT; 2'-O-methyl and phosphorothioate modified, lower-case key not given here)”, the pIC50 in series [4] is 10.12. Substance “XD-09788: siRNA targeting SPI1 (sense 5'-acAAGuAAAGuuAuucucAdTsdT-3'; antisense 5'-UGAGAAuAACUUuACUUGUdTsdT-3'; as printed in the source, key not given here)” gave a pIC50 in series [4] of 8.88.

“XD-09789: siRNA targeting SPI1 (sense 5'-aaAGuuAuucucAauccAudTsdT-3'; antisense 5'-AUGGAUUGAGAAuAACUUUdTsdT-3'; as printed in the source, key not given here)” showed a pIC50 in series [4] of 9.35.

In series [3], “XD-09796: siRNA targeting TNFAIP8L2 (sense 5'-gcAcAuAGcAAGcuGAAcudTsdT-3'; antisense 5'-AGUUcAGCUUGCuAUGUGCdTsdT-3'; RNA with 2'-O-methyl and phosphorothioate modifications, case key not given here, as printed in the source, key not given here)” gave a negative-log IC50 (pIC50) of 7.94.

For the origin of these results see patent US20210189342A1, “COMPOSITIONS AND METHODS FOR MODULATING MONOCYTE AND MACROPHAGE INFLAMMATORY PHENOTYPES AND IMMUNOTHERAPY USES THEREOF” (Verseau Therapeutics, Inc., priority 2018, published 2021).
